Results: patent US20100197650A1, “COMPOSITIONS AND METHODS OF TREATMENT COMPRISING CEFTAROLINE” (FOREST LABORATORIES HOLDINGS LTD., priority 2008, published 2010)
In brackets after ≈: the same amount, converted by molar mass.

How the values were obtained:
HA-MRSA [1] = assay: Susceptibility testing MIC/MBC, broth microdilution (Example 3); format: cell-based, Staphylococcus aureus
Description: Two hundred clinical HA-MRSA isolates, harboring the SCCmecIV type, were evaluated for susceptibility testing. […] Four strains, including 1 hVISA and 1 VISA, characterized by population analysis profile and Macro Etest were selected for time-kill analysis.
Trypose soy agar (TSA; Difco, Detroit, Mich.) was used for colony counting.
Minimum inhibitory concentrations (MIC) and minimum bactericidal concentrations (MBC) were determined by broth microdilution for all antimicrobials, according to the Clinical and Laboratory Standards Institute (CLSI) guidelines (Clinical and Laboratory Standards Institute. 2006. Methods for Dilution Antimicrobial Susceptibility Tests for Bacteria That Grow Aerobically; Approved Standard. 7th ed. Wayne, Pa.: CLSI). MBC values were determined by plating of aliquots of 5 μL from clear wells onto TSA. All susceptibility testing were performed in duplicate.

Enterococcus faecalis = assay: MIC, broth microdilution (Example 1); format: cell-based
How it was run: (§1)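 Broth microdilution per CLSI M7-A7; H. influenzae in Haemophilus Test Medium, streptococci in Mueller Hinton II Broth with 2% lysed horse blood, other organisms in Mueller Hinton II Broth. Two-fold serial dilutions; plates incubated 35° C ~20 hours, MIC read visually as growth/no-growth.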

Streptococcus pneumoniae = assay: MIC, broth microdilution (Example 1); format: cell-based; conditions: Streptococcus pneumoniae
How it was run: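 Following the CLSI M7-A7 microdilution standard, each agent alone was tested across seven 2-fold steps. The drugs were in DMSO, and the medium was HTM, MH II broth, or MH II broth with 2% lysed horse blood depending on species. MIC was read visually after ~20 h at 35 °C.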

Staphylococcus aureus = assay: MIC, broth microdilution (Example 1); format: cell-based; conditions: Staphylococcus aureus
How it was run: as §1

HA-MRSA [2] = assay: Time-kill curves at ¼ and ½ MIC (Example 3); format: cell-based, Staphylococcus aureus; conditions: drug alone at ½ MIC, the 4 tested HA-MRSA strains
Description: Four randomly selected HA-MRSA isolates were evaluated in time-kill experiments, using a starting inoculum at ˜10^6 CFU/mL and antimicrobials at ¼ and ½ MIC. Regimens included ceftaroline, vancomycin and tobramycin alone or combination of tobramycin with ceftaroline or vancomycin. […] Additivity, antagonism and indifference were defined as <2 but >1 log10 kill, >1 log10 growth and ±1 log kill, respectively.
Differences between regimens were analyzed by T-test or ANOVA with Tukey's post hoc test. […] A P value <0.05 was considered significant.

[3] = Staphylococcus aureus, MRSA / VISA, HA-MRSA isolate R2303 (VISA)
[4] = Staphylococcus aureus, MRSA, HA-MRSA isolate R3804
[5] = Staphylococcus aureus, MRSA, HA-MRSA isolate R3875 (hVISA)
[6] = Staphylococcus aureus, MRSA, HA-MRSA isolate R4039

For CN[C@H](CC(C)C)C(=O)N[C@H]1C(=O)N[C@@H](CC(N)=O)C(=O)N[C@H]2C(=O)N[C@H]3C(=O)N[C@H](C(=O)N[C@H](C(=O)O)c4cc(O)cc(O)c4-c4cc3ccc4O)[C@H](O)c3ccc(c(Cl)c3)Oc3cc2cc(c3O[C@@H]2O[C@H](CO)[C@@H](O)[C@H](O)[C@H]2O[C@H]2C[C@](C)(N)[C@H](O)[C@H](C)O2)Oc2ccc(cc2Cl)[C@H]1O [Vancomycin], the “% of Isolates with MBC 0.25 μg/mL” value (HA-MRSA [1]; 200 HA-MRSA isolates) was 0.5%, the “% of Isolates with MBC 0.5 μg/mL” value (HA-MRSA [1]; 200 HA-MRSA isolates) was 6% and the “% of Isolates with MBC 1 μg/mL” value (HA-MRSA [1]; 200 HA-MRSA isolates) was 52.5%. For the same compound, the “% of Isolates with MBC 2 μg/mL” value (HA-MRSA [1]; 200 HA-MRSA isolates) was 36.5%, the “% of Isolates with MBC ≧4 μg/mL” value (HA-MRSA [1]; 200 HA-MRSA isolates) was 4.5% and the “% of Isolates with MIC 0.25 μg/mL” value (HA-MRSA [1]; 200 HA-MRSA isolates) was 1.5%. For the same compound, the “% of Isolates with MIC 0.5 μg/mL” value (HA-MRSA [1]; 200 HA-MRSA isolates) was 14.5%, the “% of Isolates with MIC 1 μg/mL” value (HA-MRSA [1]; 200 HA-MRSA isolates) was 62% and the “% of Isolates with MIC 2 μg/mL” value (HA-MRSA [1]; 200 HA-MRSA isolates) was 21.5%. For the same compound, the “% of Isolates with MIC ≧4 μg/mL” value (HA-MRSA [1]; 200 HA-MRSA isolates) was 0.5%, the “MBC range” value (HA-MRSA [1]; 200 HA-MRSA isolates) was 0.25 to 4 µg/mL and the “MIC range” value (HA-MRSA [1]; 200 HA-MRSA isolates) was 0.25 to 4 µg/mL. The MIC50 (HA-MRSA [1]; Staphylococcus aureus, MRSA) was 1 µg/mL (≈ 0.69 µM), the MIC90 (HA-MRSA [1]; Staphylococcus aureus, MRSA) was 2 µg/mL (≈ 1.38 µM) and the MBC (HA-MRSA [1]; [3]) was 8 µg/mL (≈ 5.52 µM). For the same compound, the MIC (HA-MRSA [1]; [3]) was 4 µg/mL (≈ 2.76 µM), the MBC (HA-MRSA [1]; [4]) was 1 µg/mL (≈ 0.69 µM) and the MIC (HA-MRSA [1]; [4]) was 0.5 µg/mL (≈ 0.345 µM). It also gave an MBC (HA-MRSA [1]; [5]) of 2 µg/mL (≈ 1.38 µM), an MIC (HA-MRSA [1]; [5]) of 2 µg/mL (≈ 1.38 µM) and an MBC (HA-MRSA [1]; [6]) of 1 µg/mL (≈ 0.69 µM). For the same compound, the MIC (HA-MRSA [1]; [6]) was 1 µg/mL (≈ 0.69 µM), the MIC (Enterococcus faecalis; E. faecalis 0796 (VSE)) was 2 µg/mL and the MIC (Enterococcus faecalis; Enterococcus faecalis) was 2 µg/mL. It also gave an MIC (Streptococcus pneumoniae; PRSP, S. pneumoniae 0880 (PRSP)) of 0.5 µg/mL, an MIC (Streptococcus pneumoniae; PRSP, S. pneumoniae 0884 (PRSP)) of 0.5 µg/mL and an MIC (Streptococcus pneumoniae; S. pneumoniae 0866 (PSSP)) of 0.25 µg/mL. For the same compound, the MIC (Streptococcus pneumoniae; S. pneumoniae 0869 (PSSP)) was 0.5 µg/mL, the MIC (Staphylococcus aureus; MRSA, S. aureus 0765 (MRSA)) was 2 µg/mL and the MIC (Staphylococcus aureus; MRSA, S. aureus 2053 (MRSA)) was 1 µg/mL. For the same compound, the MIC (Staphylococcus aureus; MSSA, S. aureus 0753 (MSSA)) was 1 µg/mL, the MIC (Staphylococcus aureus; MSSA, S. aureus 2063 (MSSA)) was 1 µg/mL and the bactericidal activity (HA-MRSA [2]) was “did not display bactericidal activity”.
